Experimental data taken from ChEMBL document CHEMBL2384988, “Discovery of 2-{3-[2-(1-isopropyl-3-methyl-1H-1,2-4-triazol-5-yl)-5,6-dihydrobenzo[f]imidazo[1,2-d][1,4]oxazepin-9-yl]-1H-pyrazol-1-yl}-2-methylpropanamide (GDC-0032): a β-sparing phosphoinositide 3-kinase inhibitor with high unbound exposure and robust in vivo antitumor activity” (J Med Chem, 2013).
In brackets after ≈: the same amount, converted by molar mass.

Key:
[1] = Kinetic solubility of the compound; format: physicochemical; conditions: read-out: Kinetic_solubility
[2] = Intrinsic clearance in mouse liver microsomes after 1 hr by LC-MS/MS analysis; format: ADME, Microsome; conditions: read-out: CLH
[3] = molecular target: T1, Phosphatidylinositol 4,5-bisphosphate 3-kinase catalytic subunit alpha isoform (Homo sapiens, UniProt P42336)
Description: Inhibition of PI3Kalpha in human MCF7-neo/Her2 cells assessed as reduction of AKT phosphorylation at S473

[4] = molecular target: T1, Phosphatidylinositol 4,5-bisphosphate 3-kinase catalytic subunit alpha isoform; remark: listed apart in the source
Description: Inhibition of PI3Kalpha (unknown origin) assessed as 3,4,5-inositoltriphosphate formation after 30 mins by fluorescence polarization assay

[5] = cells; conditions: Homo sapiens
Description: Cytotoxicity against human MCF7-neo/Her2 cells after 3 to 4 days by CellTitre-Glo assay

[6] = tested on: Mus musculus; experiment: Toxicity in nude mouse xenografted with human MCF7-neo/Her2 cells assessed as body weight loss relative to vehicle-treated control; format: organism-based
[7] = tested on: Mus musculus; experiment: Unbound AUC in nude mouse at 100 mg/kg, po; format: ADME, organism-based; design: dose 100 mg/kg, route oral; conditions: in vivo
[8] = AUCtotal in nude mouse at 100 mg/kg, po; format: ADME, organism-based; design: time AUCmax, dose 100 mg/kg, route oral; conditions: plasma
[9] = tested on: Mus musculus; experiment: Unbound AUC in nude mouse at 1 mg/kg, iv and 25 mg/kg, po; format: ADME, organism-based; conditions: in vivo
[10] = (§1) AUCtotal in nude mouse at 1 mg/kg, iv and 25 mg/kg, po; format: ADME, organism-based, Plasma; conditions: nude, plasma
[11] = tested on: Mus musculus; experiment: Unbound clearance in nude mouse at 1 mg/kg, iv and 25 mg/kg, po; format: ADME, organism-based; conditions: in vivo
[12] = (§2) Plasma protein binding in mouse by equilibrium dialysis; format: ADME, cell-free; conditions: read-out: PPB (converted)
[13] = Oral bioavailability in mouse; format: ADME, organism-based; conditions: in vivo
[14] = Plasma protein binding in human; format: ADME, cell-free; conditions: read-out: PPB (converted)
[15] = Plasma protein binding in rat; format: ADME, cell-free; conditions: read-out: PPB (converted)
[16] = molecular target: Serine/threonine-protein kinase mTOR (Homo sapiens, UniProt P42345); experiment: Inhibition of mTOR (unknown origin)
[17] = molecular target: DNA-dependent protein kinase catalytic subunit (Homo sapiens, UniProt P78527); experiment: Inhibition of DNA-dependent protein kinase (unknown origin)
[18] = molecular target: Phosphatidylinositol 4-phosphate 3-kinase C2 domain-containing subunit alpha (Homo sapiens, UniProt O00443); experiment: Inhibition of PI3KC2alpha (unknown origin)
[19] = tested on: PC-3; experiment: Cytotoxicity against human PC3 cells; format: functional, cell-based
[20] = Oral bioavailability in Sprague-Dawley rat; format: ADME, organism-based; conditions: in vivo
[21] = Plasma clearance in Sprague-Dawley rat; format: ADME, organism-based
[22] = molecular target: Phosphatidylinositol 3-kinase catalytic subunit type 3 (Homo sapiens, UniProt Q8NEB9); experiment: Inhibition of human VPS34
[23] = tested on: Mus musculus; experiment: In vivo inhibition of PI3Kalpha in human MCF7-neo/Her2 cells xenografted in nude mouse assessed as reduction in AKT phosphorylation at S473 at 2.8 mg/kg, po measured after 1 hr; format: functional; design: scale not given: the % may be the effect or the level left
[24] = molecular target: Phosphatidylinositol 4-phosphate 3-kinase C2 domain-containing subunit beta (Homo sapiens, UniProt O00750); experiment: Inhibition of PI3KC2beta (unknown origin)
[25] = tested on: Plasma; experiment: as §2; format: ADME, cell-free
[26] = Plasma clearance in nude mouse at 1 mg/kg, iv and 25 mg/kg, po; format: ADME, organism-based
[27] = molecular target: T2, Phosphatidylinositol 4,5-bisphosphate 3-kinase catalytic subunit delta isoform (Homo sapiens) (UniProt O00329); conditions: 1 uM
T2 sequence (whole entry): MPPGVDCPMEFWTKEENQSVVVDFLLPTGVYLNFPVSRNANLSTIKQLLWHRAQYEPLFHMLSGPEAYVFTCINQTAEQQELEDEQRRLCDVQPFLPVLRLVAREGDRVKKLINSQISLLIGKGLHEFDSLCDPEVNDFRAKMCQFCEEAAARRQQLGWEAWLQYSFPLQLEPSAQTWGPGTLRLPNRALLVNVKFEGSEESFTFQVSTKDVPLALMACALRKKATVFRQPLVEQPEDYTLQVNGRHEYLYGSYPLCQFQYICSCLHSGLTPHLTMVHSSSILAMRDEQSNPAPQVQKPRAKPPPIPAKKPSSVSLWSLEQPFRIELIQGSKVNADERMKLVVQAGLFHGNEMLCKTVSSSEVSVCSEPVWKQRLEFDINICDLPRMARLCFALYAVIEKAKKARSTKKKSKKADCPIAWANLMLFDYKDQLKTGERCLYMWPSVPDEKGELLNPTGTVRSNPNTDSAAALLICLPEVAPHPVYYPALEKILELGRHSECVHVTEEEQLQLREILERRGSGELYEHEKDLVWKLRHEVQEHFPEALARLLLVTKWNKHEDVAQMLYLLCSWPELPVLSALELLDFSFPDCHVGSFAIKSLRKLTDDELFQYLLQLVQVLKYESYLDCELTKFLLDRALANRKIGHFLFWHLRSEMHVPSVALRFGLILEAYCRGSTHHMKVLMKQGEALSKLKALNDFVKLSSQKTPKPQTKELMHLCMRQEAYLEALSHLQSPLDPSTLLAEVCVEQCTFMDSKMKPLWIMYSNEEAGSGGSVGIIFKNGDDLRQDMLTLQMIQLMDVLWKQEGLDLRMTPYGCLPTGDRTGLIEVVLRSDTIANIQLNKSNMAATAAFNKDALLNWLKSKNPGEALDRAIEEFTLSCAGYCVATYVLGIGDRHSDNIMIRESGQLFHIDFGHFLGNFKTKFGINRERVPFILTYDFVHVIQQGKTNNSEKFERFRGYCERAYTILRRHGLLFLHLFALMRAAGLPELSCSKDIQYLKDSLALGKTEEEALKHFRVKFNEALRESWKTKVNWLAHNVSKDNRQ
Description: Inhibition of PI3Kdelta (unknown origin) at 1 uM

[28] = molecular target: T1, Phosphatidylinositol 4,5-bisphosphate 3-kinase catalytic subunit alpha isoform; conditions: 1 uM
Description: Inhibition of PI3Kalpha (unknown origin) at 1 uM

[29] = animal or person; conditions: Homo sapiens, po, 480 h, read-out: TGI
Description: Antitumor activity against human MCF7-neo/Her2 cells xenografted in nude mouse at 22.5 mg/kg, po qd for 20 days relative to vehicle-treated control

[30] = animal or person; conditions: Homo sapiens, po, 480 h, read-out: TGI; remark: listed apart in the source
Description: Antitumor activity against human MCF7-neo/Her2 cells xenografted in nude mouse at 11.25 mg/kg, po qd for 20 days relative to vehicle-treated control

[31] = tested on: Mus musculus; experiment: as §1; format: ADME, organism-based, Plasma; conditions: in vivo

T1 sequence (P42336 whole entry, canonical isoform): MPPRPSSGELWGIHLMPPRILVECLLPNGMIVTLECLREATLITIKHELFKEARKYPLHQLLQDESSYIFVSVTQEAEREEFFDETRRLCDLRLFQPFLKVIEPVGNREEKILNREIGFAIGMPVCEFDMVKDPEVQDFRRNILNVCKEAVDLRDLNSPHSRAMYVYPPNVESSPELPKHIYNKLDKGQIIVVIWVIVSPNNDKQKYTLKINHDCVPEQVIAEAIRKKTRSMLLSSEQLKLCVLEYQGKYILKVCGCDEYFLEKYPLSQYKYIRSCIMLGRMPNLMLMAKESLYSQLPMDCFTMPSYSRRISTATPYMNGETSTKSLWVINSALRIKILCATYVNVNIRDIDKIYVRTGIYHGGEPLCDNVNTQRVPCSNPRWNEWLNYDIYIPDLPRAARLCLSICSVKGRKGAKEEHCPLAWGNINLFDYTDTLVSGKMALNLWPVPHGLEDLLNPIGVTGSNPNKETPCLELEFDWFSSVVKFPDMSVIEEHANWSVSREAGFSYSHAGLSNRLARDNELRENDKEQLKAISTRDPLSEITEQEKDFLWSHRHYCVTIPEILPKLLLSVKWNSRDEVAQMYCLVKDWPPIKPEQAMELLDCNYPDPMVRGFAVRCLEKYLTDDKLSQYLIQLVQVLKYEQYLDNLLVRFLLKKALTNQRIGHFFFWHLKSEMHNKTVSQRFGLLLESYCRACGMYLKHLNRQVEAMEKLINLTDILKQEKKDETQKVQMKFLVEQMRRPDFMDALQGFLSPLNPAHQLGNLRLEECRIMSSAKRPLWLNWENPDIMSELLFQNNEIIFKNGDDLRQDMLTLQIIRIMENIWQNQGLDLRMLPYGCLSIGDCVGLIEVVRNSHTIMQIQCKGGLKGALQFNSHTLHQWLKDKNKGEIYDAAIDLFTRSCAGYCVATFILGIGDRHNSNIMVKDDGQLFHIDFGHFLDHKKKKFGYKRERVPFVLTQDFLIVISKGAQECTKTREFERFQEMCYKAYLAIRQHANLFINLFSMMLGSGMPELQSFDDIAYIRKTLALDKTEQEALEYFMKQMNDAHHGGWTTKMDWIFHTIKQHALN
Phosphatidylinositol 3-kinase catalytic subunit type 3, sequence (Q8NEB9 whole entry): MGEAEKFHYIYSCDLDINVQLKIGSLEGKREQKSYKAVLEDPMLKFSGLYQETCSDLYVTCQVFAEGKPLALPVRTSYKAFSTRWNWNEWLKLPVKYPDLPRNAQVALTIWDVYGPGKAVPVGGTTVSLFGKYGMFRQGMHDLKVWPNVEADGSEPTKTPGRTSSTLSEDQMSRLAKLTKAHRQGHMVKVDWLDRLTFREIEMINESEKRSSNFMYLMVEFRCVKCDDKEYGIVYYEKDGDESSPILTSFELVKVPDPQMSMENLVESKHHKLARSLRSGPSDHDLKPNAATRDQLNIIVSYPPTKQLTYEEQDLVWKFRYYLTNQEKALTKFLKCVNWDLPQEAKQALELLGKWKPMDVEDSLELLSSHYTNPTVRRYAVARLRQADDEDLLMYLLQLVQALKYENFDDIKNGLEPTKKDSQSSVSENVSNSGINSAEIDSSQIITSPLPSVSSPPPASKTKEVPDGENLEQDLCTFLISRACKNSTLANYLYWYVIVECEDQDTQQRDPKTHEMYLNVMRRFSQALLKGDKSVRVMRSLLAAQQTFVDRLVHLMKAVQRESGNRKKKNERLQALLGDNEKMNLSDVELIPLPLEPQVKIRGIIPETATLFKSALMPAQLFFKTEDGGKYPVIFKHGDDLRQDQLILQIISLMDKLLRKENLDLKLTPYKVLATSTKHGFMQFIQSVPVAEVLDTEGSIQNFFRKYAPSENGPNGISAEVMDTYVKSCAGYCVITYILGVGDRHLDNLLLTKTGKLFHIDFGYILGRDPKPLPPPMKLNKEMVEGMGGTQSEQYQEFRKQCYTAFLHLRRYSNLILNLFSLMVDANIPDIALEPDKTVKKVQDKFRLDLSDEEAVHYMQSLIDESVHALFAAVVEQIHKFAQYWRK
Phosphatidylinositol 4-phosphate 3-kinase C2 domain-containing subunit beta, sequence (O00750 whole entry, the tested form may be a part): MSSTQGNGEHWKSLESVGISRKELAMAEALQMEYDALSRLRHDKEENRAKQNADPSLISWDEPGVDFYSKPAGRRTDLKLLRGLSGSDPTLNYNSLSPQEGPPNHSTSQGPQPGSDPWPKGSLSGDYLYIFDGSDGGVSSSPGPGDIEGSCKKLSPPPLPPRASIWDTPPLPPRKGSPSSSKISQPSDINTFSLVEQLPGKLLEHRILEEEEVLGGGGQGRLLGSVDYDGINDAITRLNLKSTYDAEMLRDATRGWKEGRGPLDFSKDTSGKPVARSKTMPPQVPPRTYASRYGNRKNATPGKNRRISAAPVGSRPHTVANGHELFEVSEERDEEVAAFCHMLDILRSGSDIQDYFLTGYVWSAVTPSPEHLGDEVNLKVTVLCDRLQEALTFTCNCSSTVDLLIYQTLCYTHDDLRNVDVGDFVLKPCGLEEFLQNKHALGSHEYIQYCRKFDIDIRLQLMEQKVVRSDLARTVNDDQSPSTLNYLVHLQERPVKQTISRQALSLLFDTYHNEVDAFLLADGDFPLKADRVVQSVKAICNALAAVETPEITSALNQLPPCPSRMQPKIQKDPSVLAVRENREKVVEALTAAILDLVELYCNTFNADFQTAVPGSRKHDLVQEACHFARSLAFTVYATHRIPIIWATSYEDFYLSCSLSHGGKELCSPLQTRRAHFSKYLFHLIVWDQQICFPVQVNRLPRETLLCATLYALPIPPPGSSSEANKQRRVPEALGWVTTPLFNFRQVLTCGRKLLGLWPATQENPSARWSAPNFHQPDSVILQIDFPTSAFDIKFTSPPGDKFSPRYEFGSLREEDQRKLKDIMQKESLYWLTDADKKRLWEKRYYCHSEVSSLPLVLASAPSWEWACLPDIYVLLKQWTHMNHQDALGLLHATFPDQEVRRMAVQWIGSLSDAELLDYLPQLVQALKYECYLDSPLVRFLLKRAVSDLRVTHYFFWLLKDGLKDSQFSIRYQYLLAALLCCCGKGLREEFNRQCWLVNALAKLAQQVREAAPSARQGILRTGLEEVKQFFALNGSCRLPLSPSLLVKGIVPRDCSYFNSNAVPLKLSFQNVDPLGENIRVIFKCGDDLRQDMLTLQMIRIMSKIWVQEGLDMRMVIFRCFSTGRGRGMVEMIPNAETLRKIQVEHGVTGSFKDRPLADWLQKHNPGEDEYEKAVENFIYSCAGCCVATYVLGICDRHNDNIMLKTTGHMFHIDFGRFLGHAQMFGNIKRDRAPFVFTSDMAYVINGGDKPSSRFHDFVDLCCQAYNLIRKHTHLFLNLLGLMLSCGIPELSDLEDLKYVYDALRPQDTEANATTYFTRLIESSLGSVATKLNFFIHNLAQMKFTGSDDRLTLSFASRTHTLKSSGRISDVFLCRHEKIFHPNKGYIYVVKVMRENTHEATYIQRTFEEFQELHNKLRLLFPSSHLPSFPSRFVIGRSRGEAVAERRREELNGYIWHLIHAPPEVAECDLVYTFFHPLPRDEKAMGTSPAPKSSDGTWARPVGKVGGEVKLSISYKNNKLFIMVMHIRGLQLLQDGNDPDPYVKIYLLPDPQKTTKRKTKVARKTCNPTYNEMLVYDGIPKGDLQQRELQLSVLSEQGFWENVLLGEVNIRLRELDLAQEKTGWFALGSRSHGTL

In the case of Cc1nc(-c2cn3c(n2)-c2ccc(-c4cnn(CCN5CCOCC5)c4)cc2OCC3)n(C(C)C)n1, the solubility kinetic [1] is reported as 52.3 µM (≈ 25.6 µg/mL), the CLint scaled [2] is reported as 89.4 mL/min/kg and the IC50 [3] is reported as 35 nM. It also gave a Ki [4] of 0.3 nM and an IC50 [5] of 248 nM.
Work on CC(C)n1ncnc1-c1cn2c(n1)-c1ccc(-c3cnn(CCO)c3)cc1OCC2 yielded a solubility kinetic [1] of 5.1 µM (≈ 2.07 µg/mL), a CLint scaled [2] of 42.9 mL/min/kg and an IC50 [3] of 5.4 nM. For the same compound, the Ki [4] was 0.17 nM and the IC50 [5] was 92 nM.
For CS(=O)(=O)N1CCN(Cc2cc3nc(-c4cccc5[nH]ncc45)nc(N4CCOCC4)c3s2)CC1 [PICTILISIB], the Activity [6] was under 10%, the fAUC [7] was 3.5 µM·h and the AUC [8] was 80.3 µM·h.
In the case of Cc1nc(-c2cn3c(n2)-c2ccc(-c4cnn(C5CN(C(=O)[C@H](C)O)C5)c4)cc2OCC3)n(C(C)C)n1, the solubility kinetic [1] is reported as 78.2 µM (≈ 39.3 µg/mL), the CLint scaled [2] is reported as 23 mL/min/kg and the IC50 [3] is reported as 0.93 nM. It also gave a Ki [4] of 0.34 nM and an IC50 [5] of 102 nM.
CC(C)n1ncnc1-c1nc2c(s1)CCOc1cc(-c3cnn(CCO)c3)ccc1-2 gave a fAUC [7] of 0.55 µM·h, an AUC [8] of 275 µM·h and a fAUC [9] of 0.22 µM·h. It also gave an AUC [10] of 112 µM·h, a CL free [11] of 4750 mL/min/kg and a fraction unbound [12] of 0.002. It also gave an IC50 [5] of 195 nM.
Cc1nc(-c2cn3c(n2)-c2ccc(-c4cnn(CCO)c4)cc2OCC3)n(C)n1 showed a solubility kinetic [1] of 2.4 µM (≈ 0.939 µg/mL), a CLint scaled [2] of 100 mL/min/kg and a Ki [4] of 2.8 nM. The IC50 [5] was 1400 nM.
Cc1nc(-c2cn3c(n2)-c2ccc(-c4cnn(C5CN(CCO)C5)c4)cc2OCC3)n(C(C)C)n1 showed a solubility kinetic [1] of 109 µM (≈ 51.7 µg/mL), a CLint scaled [2] of 58 mL/min/kg and an IC50 [3] of 1.4 nM. For the same compound, the Ki [4] was 0.11 nM and the IC50 [5] was 120 nM.
Compound Cc1nc(-c2cn3c(n2)-c2ccc(-c4cnn(C(C)(C)C(N)=O)c4)cc2OCC3)n(C(C)C)n1 [TASELISIB] has a bioavailability [13] of 100%, a fraction unbound [14] of 0.24 and a fraction unbound [15] of 0.02. It also gave a Ki [16] of 1200 nM, an IC50 [17] of over 4.8 µM and an IC50 [18] of over 10 µM. For the same compound, the EC50 [19] was 571 nM, the bioavailability [20] was 99% and the clearance [21] was 1.8 mL/min/kg. For the same compound, the IC50 [22] was 374 nM, the Activity [23] was 59% and the Activity [6] was under 10%. It also gave an IC50 [24] of 292 nM, a fAUC [9] of 42 µM·h and an AUC [10] of 388 µM·h. It also gave a CL free [11] of 25 mL/min/kg, a PPB [25] of 89.3% and a clearance [26] of 2.7 mL/min/kg. The solubility kinetic [1] was 33.1 µM (≈ 15.2 µg/mL), the CLint scaled [2] was 41.1 mL/min/kg and the inhibition [27] was 97.9%. It also gave an inhibition [28] of 98.6%, an IC50 [5] of 25 nM and an inhibition in vivo at 22.5 mg/kg [29] of 123%. It also gave an inhibition in vivo at 11.25 mg/kg [30] of 103%.
In the case of Cc1nc(-c2cn3c(n2)-c2ccc(-c4cnn(CCO)c4)cc2OCC3)n(C(C)C)n1, the fAUC [9] is reported as 5.2 µM·h, the AUC [31] is reported as 291 µM·h and the CL free [11] is reported as 83 mL/min/kg. It also gave a fraction unbound [12] of 0.018, a CLint scaled [2] of 68.1 mL/min/kg and an IC50 [3] of 4.5 nM. It also gave an IC50 [5] of 138 nM.
Work on CC(C)n1ncnc1-c1cn2c(n1)-c1ccc(-c3cn[nH]c3)cc1OCC2 yielded a solubility kinetic [1] of under 1 µM, a CLint scaled [2] of 550 mL/min/kg and a Ki [4] of 0.31 nM. The IC50 [5] was 218 nM.
Work on Cc1n[nH]c(-c2cn3c(n2)-c2ccc(-c4cnn(CCO)c4)cc2OCC3)n1 yielded a solubility kinetic [1] of 95.8 µM (≈ 36.2 µg/mL), a Ki [4] of 21.1 nM and an IC50 [5] of over 10000 nM.
With Cc1nc(-c2cn3c(n2)-c2ccc(-c4cnn(C)c4)cc2OCC3)n(C(C)C)n1 the solubility kinetic [1] was 2 µM (≈ 0.779 µg/mL), the CLint scaled [2] was 82 mL/min/kg and the IC50 [3] was 0.71 nM. The Ki [4] was 0.29 nM and the IC50 [5] was 157 nM.
With OCCn1cc(-c2ccc3c(c2)OCCn2cc(-c4ncnn4CC(F)(F)F)nc2-3)cn1 the solubility kinetic [1] was 7.6 µM (≈ 3.39 µg/mL), the CLint scaled [2] was 28 mL/min/kg and the IC50 [3] was 2.9 nM. The Ki [4] was under 1 nM and the IC50 [5] was 66 nM.
CC(C)n1ncnc1-c1cn2c(n1)-c1ccc(-c3cnn(CC(C)(C)O)c3)cc1OCC2 gave a fAUC [9] of 2.7 µM·h, an AUC [31] of 156 µM·h and a CL free [11] of 282 mL/min/kg. It also gave a fraction unbound [12] of 0.017, a solubility kinetic [1] of 12.4 µM (≈ 5.38 µg/mL) and a CLint scaled [2] of 44.3 mL/min/kg. For the same compound, the IC50 [3] was 9.4 nM, the Ki [4] was 0.14 nM and the IC50 [5] was 81 nM.
